Measured values reported in US7956196B2, “1,3-dihydro-benzimidazol-2-ylidene amines as inhibitors of respiratory syncytial virus replication” (Tibotec Pharmaceuticals Ltd., priority 2005, dated 2011).
Counter-ions that a name gives are not always drawn. Like-named read-outs stand apart in the source and are kept apart here.

How the values were obtained:
[1] = tested on: Respiratory Syncytial Virus; test: In vitro screening for activity against RSV, automated tetrazolium-based (MTT) colorimetric assay in HeLa cells; format: cell-based; conditions: human respiratory syncytial virus, 168 h, read-out: pIC50 (converted)
Description: In vitro screening of compounds of formula (I) for activity against RSV. The percent protection against cytopathology caused by viruses (antiviral activity or EC50) achieved by tested compounds and their cytotoxicity (CC50) are both calculated from dose-response curves. The selectivity of the antiviral effect is represented by the selectivity index (SI), calculated by dividing the CC50 (cytotoxic dose for 50% of the cells) by the EC50 (antiviral activity for 50% of the cells). The tables in the above experimental part list the category to which each of the prepared compounds belong: Compounds belonging to activity category “A” have a pEC50 (-log of EC50 when expressed in molar units) equal to or more than 7. Compounds belonging to activity category “B” have a pEC50 value between 6 and 7.
Automated tetrazolium-based colorimetric assays were used for determination of EC50 and CC50 of test compounds. Flat-bottom, 96-well plastic microtiter trays were filled with 180 μl of Eagle's Basal Medium, supplemented with 5% FCS (0% for FLU) and 20 mM Hepes buffer. Subsequently, stock solutions (7.8×final test concentration) of compounds were added in 45 μl volumes to a series of triplicate wells so as to allow simultaneous evaluation of their effects on virus- and mock-infected cells. Five five-fold dilutions were made directly in the microtiter trays using a robot system. Untreated virus controls, and HeLa cell controls were included in each test. Approximately 100 TCID50 of Respiratory Syncytial Virus was added to two of the three rows in a volume of 50 μl. The same volume of medium was added to the third row to measure the cytotoxicity of the compounds at the same concentrations as those used to measure the antiviral activity. After two hours of incubation, a suspension (4×10^5 cells/ml) of HeLa cells was added to all wells in a volume of 50 μl. The cultures were incubated at 37° C. in a 5% CO2 atmosphere. Seven days after infection the cytotoxicity and the antiviral activity was examined spectrophotometrically. To each well of the microtiter tray, 25 μl of a solution of MTT (3-(4,5-dimethylthiazol-2-yl)-2,5-diphenyltetrazolium bromide) was added. The trays were further incubated at 37° C. for 2 hours, after which the medium was removed from each cup. Solubilization of the formazan crystals was achieved by adding 100 μl 2-propanol. Complete dissolution of the formazan crystals were obtained after the trays have been placed on a plate shaker for 10 min. Finally, the absorbances were read in an eight-channel computer-controlled photometer (Multiskan MCC, Flow Laboratories) at two wavelengths (540 and 690 nm). The absorbance measured at 690 nm was automatically subtracted from the absorbance at 540 nm, so as to eliminate the effects of non-specific absorption.
The percent protection against cytopathology caused by viruses (antiviral activity or EC50) achieved by tested compounds and their cytotoxicity (CC50) were both calculated from dose-response curves. The selectivity of the antiviral effect is represented by the selectivity index (SI), calculated by dividing the CC50 (cytotoxic dose for 50% of the cells) by the EC50 (antiviral activity for 50% of the cells).

[2] = protection against RSV cytopathology in HeLa cells, MTT readout seven days after infection

Structure (SMILES) | IC50 [1, 2] | melting point | IC50 ([1]; HeLa)
COc1ccc(C(=O)Cn2c(=NCCc3ccc(Br)cc3)n(Cc3cccc4cccnc34)c3ccccc32)cc1 [Compound 50] | 316 nM | 152 °C | –
COc1cc(C(=O)N=c2n(Cc3ccc(C#N)cc3)c3ccccc3n2Cc2cccc3cccnc23)cc(OC)c1OC [Compound 32] | – | 108 °C | > 100000 nM
N#Cc1ccc(Cn2c(=NC(=O)c3cccc(Cl)c3)n(Cc3cccc4cccnc34)c3ccccc32)cc1 [Compound 19] | 316 nM | 160 °C | –
COC(=O)c1ccc(Cn2c(=NCCCN3CCOCC3)n(Cc3cccc4cccnc34)c3ccccc32)cc1 [Compound 37] | 126 nM | – | –
Cc1ccc(O)c(Cn2c(=NC3CCN(CCN)CC3)n(Cc3ccc(C#N)cc3)c3ccccc32)n1 [Compound 55] | 63.1 nM | 212 °C | –
CCOc1ccc(CCn2c(=NCCc3ccc(Br)cc3)n(Cc3cccc4cccnc34)c3ccccc32)cc1 [Compound 51] | 501 nM | – | –
COc1ccc(CCN=c2n(Cc3cccc(Cl)c3)c3ccccc3n2Cc2cccc3cccnc23)cc1 [Compound 49] | 251 nM | – | –
N#Cc1ccc(Cn2c(=NC(=O)c3cc(C(F)(F)F)cc(C(F)(F)F)c3)n(Cc3cccc4cccnc34)c3ccccc32)cc1 [Compound 24] | 794 nM | 190 °C | –
N#Cc1ccc(Cn2c(=NC(=O)c3ccc(C#N)cc3)n(Cc3cccc4cccnc34)c3ccccc32)cc1 [Compound 31] | > 100000 nM | 182 °C | –
Cc1cc(C)cc(CN=c2n(Cc3ccc(C#N)cc3)c3ccccc3n2Cc2cccc3cccnc23)c1 [Compound 16] | – | 142 °C | 251 nM
N#Cc1ccc(Cn2c(=NC(=O)c3ccc(Br)cc3)n(Cc3cccc4cccnc34)c3ccccc32)cc1 [Compound 26] | 10000 nM | 125 °C | –
COC(=O)c1ccc(Cn2c(=NC(=O)c3ccc(Br)cc3)n(Cc3cccc4cccnc34)c3ccccc32)cc1 [Compound 40] | > 100000 nM | 131 °C | –
COC(=O)c1ccc(CN=c2n(Cc3ccc(C#N)cc3)c3ccccc3n2Cc2cccc3cccnc23)cc1 [Compound 5] | 15.8 nM | – | –
N#Cc1ccc(Cn2c(=NC(=O)c3ccc(Cl)cc3)n(Cc3cccc4cccnc34)c3ccccc32)cc1 [Compound 21] | 398 nM | 154 °C | –
N#Cc1ccc(Cn2c(=NC(=O)c3cccc([N+](=O)[O-])c3)n(Cc3cccc4cccnc34)c3ccccc32)cc1 [Compound 22] | 631 nM | 222 °C | –
N#Cc1ccc(Cn2c(=NCCCN3CCOCC3)n(Cc3ccc4ccccc4n3)c3ccccc32)cc1 [Compound 56] | 200 nM | – | –
N#Cc1ccc(Cn2c(=NCCc3ccccc3)n(Cc3cccc4cccnc34)c3ccccc32)cc1 [Compound 25] | 2000 nM | – | –
O=C(Cn1c(=NCCc2ccc(Br)cc2)n(Cc2cccc3cccnc23)c2ccccc21)c1ccc(Br)cc1 [Compound 52] | – | 120 °C | 631 nM
COc1ccc(CCN=c2n(Cc3ccc(Br)cc3)c3ccccc3n2Cc2cccc3cccnc23)cc1 [Compound 45] | 100 nM | – | –
N#Cc1ccc(Cn2c(=NC(=O)c3ccc([N+](=O)[O-])cc3)n(Cc3cccc4cccnc34)c3ccccc32)cc1 [Compound 28] | 31600 nM | 196 °C | –
N#Cc1ccc(Cn2c(=NC(=O)c3ccc(Oc4ccccc4)cc3)n(Cc3cccc4cccnc34)c3ccccc32)cc1 [Compound 33] | 100000 nM | 66 °C | –
N#Cc1ccc(C(=O)Cn2c(=NCCc3ccc(Br)cc3)n(Cc3cccc4cccnc34)c3ccccc32)cc1 [Compound 53] | 2510 nM | – | –
COc1ccc(CCCN=c2n(Cc3ccc(C#N)cc3)c3ccccc3n2Cc2cccc3cccnc23)cc1 [Compound 9] | 50.1 nM | 80 °C | –
COc1ccc(Cn2c(=NCCc3ccc(Br)cc3)n(Cc3cccc4cccnc34)c3ccccc32)cc1 [Compound 44] | 79.4 nM | 87 °C | –
COc1ccc(CCN=c2n(Cc3ccc(Cl)cc3)c3ccccc3n2Cc2cccc3cccnc23)cc1 [Compound 46] | 100 nM | 250 °C | –

Structure (SMILES) | IC50 [1, 2] | melting point | IC50 ([1]; HeLa)
N#Cc1ccc(Cn2c(=NCCC(c3ccccc3)c3ccccc3)n(Cc3cccc4cccnc34)c3ccccc32)cc1 [Compound 18] | 316 nM | 184 °C | –
COc1ccc(CCN=c2n(Cc3ccc(OC)cc3)c3ccccc3n2Cc2cccc3cccnc23)cc1 [Compound 41] | 63.1 nM | – | –
COc1ccccc1CCN=c1n(Cc2ccc(C#N)cc2)c2ccccc2n1Cc1cccc2cccnc12 [Compound 14] | 158 nM | – | –
COC(=O)c1cccc(Cn2c(=NCCc3ccc(Br)cc3)n(Cc3cccc4cccnc34)c3ccccc32)c1 [Compound 43] | 79.4 nM | 80 °C | –
N#Cc1ccc(Cn2c(=NCCc3ccc(Br)cc3)n(Cc3cccc4cccnc34)c3ccccc32)cc1 [Compound 6] | 31.6 nM | – | –
N#Cc1ccc(Cn2c(=NCCc3ccc(F)cc3)n(Cc3cccc4cccnc34)c3ccccc32)cc1 [Compound 11] | 79.4 nM | – | –
N#Cc1ccc(CN=c2n(Cc3ccc(C#N)cc3)c3ccccc3n2Cc2cccc3cccnc23)cc1 [Compound 2] | 10 nM | – | –
Cc1ccc(O)c(Cn2c(=NCCc3ccc(Br)cc3)n(Cc3ccc(C#N)cc3)c3ccccc32)n1 [Compound 57] | 251 nM | 204 °C | –
COc1ccc(C(=O)N=c2n(Cc3ccc(C#N)cc3)c3ccccc3n2Cc2cccc3cccnc23)cc1 [Compound 27] | – | 150 °C | 20000 nM
N#Cc1ccc(Cn2c(=NCCCN3CCCC3=O)n(Cc3cccc4cccnc34)c3ccccc32)cc1 [Compound 15] | 200 nM | – | –
Cc1cccc(C(=O)N=c2n(Cc3ccc(C#N)cc3)c3ccccc3n2Cc2cccc3cccnc23)c1 [Compound 20] | 398 nM | 158 °C | –
N#Cc1ccc(Cn2c(=NC(=O)c3ccc(Cl)cc3Cl)n(Cc3cccc4cccnc34)c3ccccc32)cc1 [Compound 23] | – | 114 °C | 631 nM
COc1ccc(CCN=c2n(Cc3ccc(C)cc3)c3ccccc3n2Cc2cccc3cccnc23)cc1 [Compound 42] | – | – | 79.4 nM
N#Cc1ccc(Cn2c(=NC(=O)c3ccc(-c4ccccc4)cc3)n(Cc3cccc4cccnc34)c3ccccc32)cc1 [Compound 29] | 39800 nM | 100 °C | –
N#Cc1ccc(Cn2c(=NCCc3cccc(F)c3)n(Cc3cccc4cccnc34)c3ccccc32)cc1 [Compound 8] | 50.1 nM | 102 °C | –
COc1ccc(CCN=c2n(Cc3ccc(F)cc3)c3ccccc3n2Cc2cccc3cccnc23)cc1 [Compound 47] | 158 nM | – | –
COC(=O)c1ccc(Cn2c(=NC(=O)c3cc(C(F)(F)F)cc(C(F)(F)F)c3)n(Cc3cccc4cccnc34)c3ccccc32)cc1 [Compound 39] | 1580 nM | 204 °C | –
COC(=O)c1ccc(Cn2c(=NCCc3ccc(Br)cc3)n(Cc3cccc4cccnc34)c3ccccc32)cc1 [Compound 35] | 7.94 nM | – | –
Cc1ccc(CCCO)c(NCc2ccc3c(c2)n(Cc2nc(C)ccc2O)c(=N)n3C)c1 [Compound 58] | 3.16 nM | 195 °C | –
N#Cc1ccc(Cn2c(=NCc3cccc(C#N)c3)n(Cc3cccc4cccnc34)c3ccccc32)cc1 [Compound 10] | 63.1 nM | – | –
N#Cc1ccc(Cn2c(=NCCCN3CCOCC3)n(Cc3cccc4cccnc34)c3ccccc32)cc1 [Compound 13] | 126 nM | 80 °C | –
COC(=O)c1ccc(Cn2c(=NCCc3cccc(F)c3)n(Cc3cccc4cccnc34)c3ccccc32)cc1 [Compound 36] | 79.4 nM | 89 °C | –
COC(=O)c1ccc(Cn2c(=NCCc3ccc(Br)cc3)n(Cc3cccc4cccnc34)c3ccccc32)cc1 (as salt: HCl) [Compound 35] | – | 128 °C | –
N#Cc1ccc(Cn2c(=NCCc3ccc(OCCO)cc3)n(Cc3cccc4cccnc34)c3ccccc32)cc1 [Compound 1] | 6.31 nM | – | –
CCOc1ccc(CCn2c(=NCCc3ccc(OC)cc3)n(Cc3cccc4cccnc34)c3ccccc32)cc1 [Compound 48] | 200 nM | – | –
